Reference: patent US20190169574A1, “IN VITRO PRODUCTION OF PANCREATIC BETA CELLS” (NESTEC S.A., priority 2016, published 2019)

What was measured:
human cadaveric islets = details: islets that produced low levels of insulin due to prolonged culture; cited from earlier work
PE cells = assay: Dose response test: toxicity and morphology of PE cell aggregates in culture with increasing doses of Isx9; type: cell-based; details: FIG. 1
Experimental: FIG. 1: Morphological analysis of PE cells in culture with increasing doses of Isx9. PE cells were cultured in suspension without Isx9 (DMSO control carrier), and with increasing concentrations of Isx9 (6 μM, 12 μM, 24 μM, 48 μM and 60 μM) for 4 days and 8 days. 5× and 10× magnification pictures have been collected for each condition and time point.
Dose response tests have been performed to determine toxicity of Isx9 and the optimal concentration of Isx9 to be tested for beta cell differentiation in vitro. High concentrations of Isx9 (from 24 μM up to 60 μM) appears to be toxic as the aggregates of PE cells become cystic after 8 days in culture as shown in FIG. 1. In contrast, the morphology of the aggregates of PE cells is unchanged as compared to the control DMSO condition when using 6 and 12 μM of Isx9. In order to maintain physiological condition, a concentration of 6 μM of Isx9 has been used for the entire protocol. Exposure of maturing beta cells to Isx9 for 13 days is increasing the glucose-stimulated insulin secretion of the cells as compared to the control DMSO condition (FIG. 2). This effect is correlated with the duration of exposure to Isx9 at 6 uM. […] Isx9 induces an increase in RNA expression levels of endocrine markers such as Ngn3, but also beta cell markers as NeuroD1 and Nkx2.2.

[1] = test system: iPSC-derived maturing beta cells; assay: In vitro glucose-stimulated insulin secretion test; type: cell-based
Experimental: FIG. 2: Exposure of PE cells to Isx9 induces glucose response properties to the cells. A: Scheme of the protocol setup. Maturing beta cells have been exposed to DMSO or Isx9 (6 μM) for 13 days, 7 days or 2 days during the maturation step. B: In vitro glucose-stimulated Insulin secretion test have been performed to measure secretion of Insulin in each condition (No Isx9, 13 days Isx9, 7 days Isx9 or 2 days Isx9) induced by low glucose concentration (2 mM) or high glucose concentration (20 mM). The stimulation index of Insulin secretion is determined between the 2 concentrations of glucose on the y axis. FIG. 4: Exposure of PE cells to Isx9 in two-steps increases glucose response properties to the cells. A: Scheme of the protocol setup. In a first step, PE cells have been exposed to DMSO (condition 1) or Isx9 (6 μM) for 2-6 days (condition 2). In a second step, maturing beta cells have been exposed to DMSO (condition 3) or Isx9 (6 uM) for 10 days (condition 4). B: In vitro glucose-stimulated Insulin secretion test have been performed to measure secretion of Insulin in each condition, induced by low glucose concentration (2 mM) or high glucose concentration (20 mM). The stimulation index of Insulin secretion is determined between the 2 concentrations of glucose on they axis. In order from left to right: NKX6.1, Pdx1, NGN3, NKX2-2, NeuroD1. Frozen PE cells were thawed and cultured for 1 day in I medium containing 10 U/mL DNase I in ULA 6WP flat-bottomed plates. The PE cells were subsequently transferred to S3 BASE medium (MCDB131, 8 mM D-glucose, 1.23 g/L NaHCO3, 2% FFA BSA, 1:200 ITX-X, 2 mM glutamax, 100×PS and 0.25 mM vitamin C) containing 50 ng/mL KGF, 0.25 μM Sant1, 100 nM RA and 10 μM Y and cultured for a further 2 days. The resulting cells were then cultured for 4 days using an air-liquid interface culture protocol in Transwell plates. […]

MAFA = MAFA detection by immunohistochemistry; type: cell-based; details: as early as at D9 of differentiation; FIG. 7
Excerpt: (§1) Moreover, culturing the PE cells in suspension or in transwell culture systems in presence of Isx9 is showing the same effect of improved glucose-dependent insulin response as shown in FIG. 5 and FIG. 6. […] Both markers are critical for mediating the response of insulin secretion mediated by glucose. The expression of MAFA can also be unprecedently detected by immunohistochemistry as early as at D9 of differentiation as shown in FIG. 7.

maturing beta cells = assay: Analysis of the cell composition of the maturing beta cells (insulin positive cells); type: cell-based; details: Isx9 added
Excerpt: FIG. 7: FACS sorting of cells
as §1

[2] = test system: PE cells / in vitro maturing beta cells; assay: RNA / gene expression levels of endocrine progenitor and beta cell markers; type: cell-based
Experimental: FIG. 3: Early exposure of PE cells to Isx9 increases gene expression levels of endocrine progenitors as well as mature beta cell markers. A: Scheme of the protocol setup. B: Early exposure of PE cells to Isx9 (6 μM) for 2-6 days (condition 3) increases RNA expression levels of Ngn3, Nkx2.2 and NeuroD1 at D13 of differentiation, as compared to DMSO exposure (condition 1). The increase of Nkx2.2 RNA expression levels is maintained at D23 of differentiation when in vitro maturing beta cells are exposed to Isx9 (6 uM) in a two-step protocol (condition 4). Controls are represented by primary human islets. First bar of each pair is 2 mM and second bar is at 20 mM. Frozen PE cells were thawed and cultured for 1 day in I medium containing 10 U/mL DNase I in ULA 6WP flat-bottomed plates. The PE cells were subsequently transferred to S3 BASE medium (MCDB131, 8 mM D-glucose, 1.23 g/L NaHCO3, 2% FFA BSA, 1:200 ITX-X, 2 mM glutamax, 100×PS and 0.25 mM vitamin C) containing 50 ng/mL KGF, 0.25 μM Sant1, 100 nM RA and 10 μM Y and cultured for a further 2 days. The resulting cells were then cultured for 4 days using an air-liquid interface culture protocol in Transwell plates. The culture was carried out in S5 BASE medium (MCDB131, 20 mM D-glucose, 1.754 g/L NaHCO3, 2% FFA BSA, 1:200 ITX-X, 2 mM glutamax, 100×PS, 0.25 mM vitamin C and […] heparin) containing 100 nM RA, 1 μM XXI, 0.25 μM Sant1, 10 μM Alk5i II, 1 μM T3, 20 ng/mL beta-cellulin, 10 μM Y and 6 μM isoxazole 9 (ISX-9). Subsequently, the medium was exchanged for S5 BASE medium containing 25 nM RA, 1 μM XXI, 10 μM Alk5i II, 1 μM T3, 20 ng/mL beta-cellulin and 10 μM Y and the cells were cultured for a further 3 days. ISX-9 was not present in this medium. Finally, the medium was exchanged for S6 BASE medium (CMRL 1066, 10% FBS and 100×PS) containing 10 μM Alk5i II, 1 μM T3 and 10 μM Y and the cells were cultured for a further 15 days. ISX-9 was added to this medium at a concentration of 6 μM for the final 14 days of culture (i.e. the first day of culture in this step was carried out in the absence of ISX-9).

adult neural stem cell = details: in vitro and in vivo; cited from earlier work
[3] = Isx9 6 μM early exposure of PE cells for 2-6 days vs DMSO, D13 of differentiation, FIG. 3

In the case of O=C(NC1CC1)c1cc(-c2cccs2)on1 [Isx9, Isoxazole 9], the “expression and secretion of insulin” value (human cadaveric islets) is given as “increase”, the “morphology of the aggregates of PE cells as compared to the control DMSO condition” value (PE cells; 6 and 12 μM of Isx9) is given as “unchanged” and the “toxicity (aggregates of PE cells become cystic)” value (PE cells; high concentrations, from 24 μM up to 60 μM, after 8 days in culture) is given as “toxic”. For the same molecule, the “effect of Isx9 on glucose response when added in a first step at the PE cell stage (two-step protocol)” value ([1]; Isx9 6 μM, first step 2-6 days at PE stage, second step 10 days, FIG. 3 and FIG. 4) was “reinforced”, the glucose-dependent insulin response ([1]; PE cells cultured in suspension or in transwell culture systems in presence of Isx9, FIG. 5 and FIG. 6) was “improved” and the “glucose-stimulated insulin secretion of the cells as compared to the control DMSO condition” value ([1]; maturing beta cells exposed to Isx9 6 μM for 13 days, 2 mM vs 20 mM glucose, effect correlated with duration of exposure, FIG. 2) was “increasing”. For the same molecule, the “expression of MAFA by immunohistochemistry” value (MAFA) was “detected”, the “number or quantity of insulin positive cells as compared to DMSO” value (maturing beta cells) was “does not receal an increase” and the “RNA expression level of NeuroD1” value [2, 3] was “increases”. For the same molecule, the “RNA expression level of Ngn3” value [2, 3] was “increases”, the “RNA expression level of Nkx2.2” value [2, 3] was “increases” and the “increase of Nkx2.2 RNA expression levels at D23” value ([2]; Isx9 6 uM two-step protocol (condition 4), D23 of differentiation, FIG. 3) was “maintained”. For the same molecule, the “MAFA gene expression level” value ([2]; in presence of Isx9) was “increase”, the “PCSK1 gene expression level” value ([2]; in presence of Isx9) was “increase” and the “adult neural stem cell differentiation” value (adult neural stem cell) was “induce”.
